In patent US20060161001A1, “Substituted heterocyclic compounds and methods of use” (Amgen Inc., priority 2004, published 2006):

system: LPS induced TNF release; assay: THP1 cell assay (LPS induced TNF release); type: cell-based; details: Homo sapiens, THP-1; THP1 cells, LPS induced TNF-α secretion, 3 h at 37° C.
Experimental: Lipopolysaccharide-Activated THP1 Cell TNF Production Assay
THP1 cells are resuspended in fresh THP1 media (RPMI 1640, 10% heat-inactivated FBS, 1XPGS, 1XNEAA, plus 30 μM OME) at a concentration of 1E6/mL. One hundred microliters of cells per well are plated in a polystyrene 96-well tissue culture. One microgram per mL of bacterial LPS is prepared in THP1 media and is transferred to the wells. Test compounds are dissolved in 100% DMSO and are serially diluted 3-fold in a polypropylene 96-well microtiter plate (drug plate). HI control and LO control wells contain only DMSO. One microliter of test compound from the drug plate followed by 10 μL of LPS are transferred to the cell plate. The treated cells are induced to synthesize and secrete TNF-α at 37° C. for 3 h. Forty microliters of conditioned media are transferred to a 96-well polypropylene plate containing 110 μL of ECL buffer (50 mM Tris-HCl pH 8.0, 100 mM NaCl, 0.05% Tween 20, 0.05% NaN3 and 1% FBS) supplemented with 0.44 nM MAB610 monoclonal Ab (R&D Systems), 0.34 nM ruthenylated AF210NA polyclonal Ab (R&D Systems) and 44 μg/mL sheep anti-mouse M280 Dynabeads (Dynal). After a 2 h incubation at RT with shaking, the reaction is read on the ECL M8 Instrument (IGEN Inc.). A low voltage is applied to the ruthenylated TNF-α immune complexes, which in the presence of TPA (the active component in Origlo), results in a cyclical redox reaction generating light at […]. The amount of secreted TNF-α in the presence of compound compared with that in the presence of DMSO vehicle alone (HI control) is calculated using the formula: % control (POC)=(cpd−average LO)/(average HI−average LO)*100. Data (consisting of POC and inhibitor concentration in μM) is fitted to a 4-parameter equation (y=A+((B−A)/(I+((x/C)ˆD))), where A is the minimum y (POC) value, B is the maximum y (POC), C is the x (cpd concentration) at the point of inflection and D is the slope factor) using a Levenburg-Marquardt non-linear regression algorithm.

Which IC50 does the source give for `N[C@H]1CC[C@H](Nc2nccc(N3CCCc4cc(CO)c(-c5ccccc5)nc43)n2)CC1` [Example 76, (8-(2-((1R,4R)-4-Aminocyclohexylamino)pyrimidin-4-yl)-2-phenyl-5,6,7,8-tetrahydro-1,8-naphthyridin-3-yl)methanol] here?
Its IC50 is at most 20 µM.

For `CC(C)(O)c1cc2c(nc1-c1ccccc1)N(c1ccnc(N[C@H]3CC[C@H](N)CC3)n1)CCC2` [Example 78, 2-(8-(2-((1R,4R)-4-Aminocyclohexylamino)pyrimidin-4-yl)-2-phenyl-5,6,7,8-tetrahydro-1,8-naphthyridin-3-yl)propan-2-ol], which IC50 is on record?
The IC50 was at most 20 µM.

How did the IC50 turn out when `CCOC(=O)c1cc2c(nc1-c1ccccc1)N(c1ccnc(NC(C)Cc3cccc(CO)c3)n1)CCC2` (stereo not drawn) [Example 79, Ethyl 8-(2-(1-(3-(hydroxymethyl)phenyl)propan-2-ylamino)pyrimidin-4-yl)-2-phenyl-5,6,7,8-tetrahydro-1,8-naphthyridine-3-carboxylate] was run?
The IC50 was at most 20 µM.

Which IC50 does the source give for `CC(Cc1cccc(CN)c1)Nc1nccc(N2CCCc3cc(CO)c(-c4ccccc4)nc32)n1` (stereo not drawn) [Example 80, (8-(2-(1-(3-(Aminomethyl)phenyl)propan-2-ylamino)pyrimidin-4-yl)-2-phenyl-5,6,7,8-tetrahydro-1,8-naphthyridin-3-yl)methanol] here?
The IC50 was at most 20 µM.

How did the IC50 turn out when `Nc1cc2c(nc1-c1ccccc1)N(c1ccnc(NCCc3ccccc3)n1)CCC2` [Example 81, 8-(2-(Phenethylamino)pyrimidin-4-yl)-2-phenyl-5,6,7,8-tetrahydro-1,8-naphthyridin-3-amine] was run?
Its IC50 is at most 20 µM.

`OCc1cc(-c2ccccc2)nc2c1CCCN2c1ccnc(NCCc2ccccc2)n1` [Example 86, (8-(2-(Phenethylamino)pyrimidin-4-yl)-2-phenyl-5,6,7,8-tetrahydro-1,8-naphthyridin-4-yl)methanol] was tested. Which IC50 did it give?
Its IC50 is at most 20 µM.

For `CCOC(=O)N1CCC(Nc2nccc(N3CCCc4ccc(-c5ccccc5)nc43)n2)CC1` [Example 87, Ethyl-4-(4-(7-phenyl-3,4-dihydro-1,8-naphthyridin-1(2H)-yl)pyrimidin-2-ylamino)-piperidine-1-carboxylate], which IC50 is on record?
The IC50 was at most 20 µM.

Which IC50 does the source give for `NC1CCC(Nc2nccc(N3CCCc4ccc(-c5ccccc5)nc43)n2)CC1` [Example 88, (1R,4R)-N^1-(4-(7-Phenyl-3,4-dihydro-1,8-naphthyridin-1(2H)-ylpyrimidin-2-yl)-cyclohexane-1,4-diamine] here?
Its IC50 is at most 20 µM.

With `CC(C)NC1CCC(Nc2nccc(N3CCCc4ccc(-c5ccccc5)nc43)n2)CC1` [Example 89, (1R,4R)-N^1-Isopropyl-N^4-(4-(7-phenyl-3,4-dihydro-1,8-naphthyridin-1(2H)-yl)pyrimidin-2-yl)cyclohexane-1,4-diamine] as the molecule, how does the IC50 read?
The IC50 was at most 20 µM.

Which IC50 does the source give for `CC(=O)NC1CCC(Nc2nccc(N3CCCc4ccc(-c5ccccc5)nc43)n2)CC1` [Example 90, N-((1R,4R)-4-(4-(7-Phenyl-3,4-dihydro-1,8-naphthyridin-1(2H)-yl)pyrimidin-2-ylamino)cyclohexyl)acetamide] here?
The IC50 was at most 20 µM.

For `C[C@@H](Cc1cccc([C@@H](C)N)c1)Nc1nccc(N2CCCc3ccc(-c4ccccc4)nc32)n1` [Example 91, N-((S)-1-(3-((R)-1-Aminoethyl)phenyl)propan-2-yl)-4-(7-phenyl-3,4-dihydro-1,8-naphthyridin-1(2H)-yl) pyrimidin-2-amine], which IC50 is on record?
Its IC50 is at most 20 µM.

Which IC50 does the source give for `C[C@@H](Cc1cccc([C@@H](C)NC(=O)OC(C)(C)C)c1)Nc1nccc(N2CCOc3cnc(-c4ccccc4)nc32)n1` [Example 99, tert-Butyl (R)-1-(3-((S)-2-(4-(2-phenyl-6,7-dihydropyrimido[5,4-b][1,4]oxazin-8-yl)pyrimidin-2-ylamino)propyl)phenyl)ethylcarbamate] here?
The IC50 was at most 20 µM.

For `C[C@@H](Cc1cccc([C@@H](C)N)c1)Nc1nccc(N2CCOc3cnc(-c4ccccc4)nc32)n1` [Example 100, N-((S)-1-(3-((R)-1-Aminoethyl)phenyl)propan-2-yl)-4-(2-phenyl-6,7-dihydropyrimido[5,4-b][1,4]oxazin-8-yl)pyrimidin-2-amine], which IC50 is on record?
The IC50 was at most 20 µM.

Which IC50 does the source give for `N[C@H]1CC[C@H](Nc2nccc(N3CCOc4cnc(-c5ccccc5)nc43)n2)CC1` [Example 102, (1R,4R)-N^1-(4-(2-Phenyl-6,7-dihydropyrimido[5,4-b][1,4]oxazin-8-yl)pyrimidin-2-yl)cyclohexane-1,4-diamine] here?
The IC50 was at most 20 µM.

With `c1ccc(-c2ncc3c(n2)N(c2ccnc(NC4CCNCC4)n2)CCO3)cc1` [Example 106, 4-(2-Phenyl-6,7-dihydropyrimido[5,4-b][1,4]oxazin-8-yl)-N-(piperidin-4-yl)-pyrimidin-2-amine] as the molecule, how does the IC50 read?
Its IC50 is at most 20 µM.

How did the IC50 turn out when `CC(=O)N1CCC(Nc2nccc(N3CCOc4cnc(-c5ccccc5)nc43)n2)CC1` [Example 107, 1-(4-(4-(2-Phenyl-6,7-dihydropyrimido[5,4-b][1,4]oxazin-8-yl)pyrimidin-2-yl-amino)piperidin-1-yl)ethanone] was run?
Its IC50 is at most 20 µM.

With `C[C@@H](Cc1cccc(C(C)(C)N)c1)Nc1nccc(N2CCOc3cnc(-c4ccccc4)nc32)n1` [Example 108, (S)-N-(1-(3-(2-Aminopropan-2-yl)phenyl)propan-2-yl)-4-(2-phenyl-6,7-dihydropyrimido[5,4-b][1,4]oxazin-8-yl)pyrimidin-2-amine] as the molecule, how does the IC50 read?
The IC50 was at most 20 µM.

For `C[C@H](N)c1cccc(C[C@H](C)Nc2nccc(N3CCCc4cnc(-c5ccccc5)cc43)n2)c1` [Example 109, N-((S)-1-(3-((S)-1-Aminoethyl)phenyl)propan-2-yl)-4-(7-phenyl-3,4-dihydro-1,6-naphthyridin-1(2H)-yl)pyrimidin-2-amine], which IC50 is on record?
Its IC50 is at most 20 µM.
